38 compounds from the supplement of paper PMC10949913 can be followed below.

What all share (assay): area under concentration-response curve (viability) (AUC (a.u.)); higher = less active
Conditions in all cases: 48 h

For one test, the system named is CU-ACC1. Summed up:
(§1)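 Three adrenocortical carcinoma cell lines were plated in 1,536-well plates at 500–1,000 cells/well in 5 µL medium, and 23 nL of each library compound was added at 11 concentrations. After 48 h, CellTiter-Glo was applied for 15 minutes at room temperature before luminescence was read. Each plate's signals were normalised to vehicle and empty-well controls. AC50 and area under the curve were taken from fitted concentration-response curves, with only inhibitory or non-responding curve classes retained.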

The test system of another test is NCI-H295R. The gist of the method:
as §1

For a further test, the system named is CU-ACC2. Summed up:
as §1

With `Cc1cccc(-c2nn(C(=S)Nc3ccccc3)cc2-c2ccnc3ccccc23)n1`, the “area under concentration-response curve” value in the test on CU-ACC1 stood at 506; in the test on NCI-H295R, 470; in the test on CU-ACC2, 590.
The matching figures for `C\C1=N\N(C(=O)C1)C2=CC=CC=C2`: 492, 478 and 585.
The corresponding values for `Cc1cnc(NC(=O)c2cc(Oc3cnc(C(=O)N(C)C)nc3)c3cc(C)oc3c2)cn1` are 564, 594 and 643.
The corresponding values for `O=C(NCC1CCCCN1)c1cc(OCC(F)(F)F)ccc1OCC(F)(F)F` (centres undefined) are 431, 525 and 527.
Take `FC(F)(F)c1ccc(CNc2ccc(Cc3c[nH]c4ncc(Cl)cc34)cn2)cn1`: the “area under concentration-response curve” value came out at 555 in the test with CU-ACC1, 582 in the test on NCI-H295R and 630 with CU-ACC2.
The matching figures for `Nc1nccc(-c2c(-c3ccc(F)cc3)ncn2C2CCN(Cc3ccon3)CC2)n1`: 467, 495 and 578.
The corresponding values for `Cc1ccc([S+](=O)([O-])OCC(=O)Nc2ccc(C(=O)O)c(O)c2)cc1` are 543, 546 and 589.
Take `C[C@@H](C1CC[C@@]2(O)C3=CC(=O)[C@@H]4C[C@@H](O)[C@@H](O)C[C@]4(C)[C@H]3CC[C@]12C)[C@H](O)CCC(C)(C)O` (some centres undefined): the results for the “area under concentration-response curve” value in the test on CU-ACC1, in the test on NCI-H295R and in the test with CU-ACC2 were 411, 424 and 488, respectively.
The matching figures for `C[C@H]1CN(CCN1C2=CN=C(NC/3=C/C(=C\N(C)C3=O)C4=CC=NC(=C4CO)N5CC[N]6C7=C(CC(C)(C)C7)C=C6C5=O)C=C2)C8COC8`: 532, 560 and 618.
With `CN(C)/N=N/c1nc[nH]c1C(N)=O`, the “area under concentration-response curve” value was found to be 514 in the test with CU-ACC1, 481 in the test with NCI-H295R and 547 with CU-ACC2.
Take `NC\1=N\C(=O)N(\C=N1)[C@H]2C[C@H](O)[C@@H](CO)O2`: the “area under concentration-response curve” value with CU-ACC1 was 500; with NCI-H295R it was 484; with CU-ACC2 it was 588.
The corresponding values for `CCOc1cc(N)c(Cl)cc1C(=O)NCC1CN(Cc2ccc(F)cc2)CCO1` (centres undefined) are 554, 542 and 538.
The corresponding values for `C[C@H]1CNCCCN1[S+](=O)([O-])c1cccc2cncc(F)c12` are 530, 551 and 589.
The corresponding values for `CC(C)C(=O)OCC(=O)[C@@]12O[C@@H](O[C@@H]1C[C@H]3[C@@H]4CC\C5=C\C(=O)\C=C/[C@]5(C)[C@H]4[C@@H](O)C[C@]23C)C6CCCCC6` are 523, 531 and 606.
For `COc1cc2ncnc(-n3nc(-c4ccccn4)nc3N)c2cc1OC`, the “area under concentration-response curve” value in the test with CU-ACC1 came out at 458; in the test with NCI-H295R it was 489; in the test on CU-ACC2, 551.
The matching figures for `Cc1[nH]c(/C=C2\C(=O)Nc3ccccc32)c(C)c1CCC(=O)O`: 496, 480 and 535.
The corresponding values for `COc1ccc(/C=C/C(=O)Nc2ccccc2C(=O)O)cc1OC` are 439, 496 and 517.
With `COc1cc2c(cc1OC)CN(CCc1ccc(NC(=O)c3cc(OC)c(OC)cc3NC(=O)c3cnc4ccccc4c3)cc1)CC2`, the “area under concentration-response curve” value with CU-ACC1 is 560; in the test on NCI-H295R it was 569; with CU-ACC2, 640.
The corresponding values for `CN1C[C@@H]2c3ccccc3Oc3ccc(Cl)cc3[C@H]2C1` are 553, 554 and 525.
Regarding `COC(=O)[C@H](c1ccccc1Cl)N1CCc2sccc2C1`, the “area under concentration-response curve” value with CU-ACC1 turned out to be 510; in the test with NCI-H295R it was 521; in the test with CU-ACC2, 551.
For the compound `CC(C)Oc1ccc(-c2nc(-c3cccc4c3CC[C@@H]4NCCO)no2)cc1C#N`, the entries for the “area under concentration-response curve” value in the test with CU-ACC1, in the test on NCI-H295R and in the test with CU-ACC2 were 370, 481 and 502, respectively.
On to `COc1ccc(COc2cc3oc(=O)c4cc(C(C)O)ccc4c3cc2OC)cc1` (centres undefined), for which the “area under concentration-response curve” value in the test with CU-ACC1 came out at 356; with NCI-H295R, 466; in the test with CU-ACC2, 506.
As for `CC(C)=CCC[C@](C)(O[C@@H]1O[C@H](CO[C@@H]2O[C@H](CO)[C@@H](O)[C@H](O)[C@H]2O)[C@@H](O)[C@H](O)[C@H]1O)[C@H]1CC[C@]2(C)[C@@H]1[C@H](O)C[C@@H]1[C@@]3(C)CC[C@H](O[C@@H]4O[C@H](CO)[C@@H](O)[C@H](O)[C@H]4O[C@@H]4O[C@H](CO)[C@@H](O)[C@H](O)[C@H]4O)C(C)(C)[C@@H]3CC[C@]12C`, the “area under concentration-response curve” value in the test with CU-ACC1 was 533; with NCI-H295R it was 591; in the test on CU-ACC2 it was 637.
Turning to `CCOC(=O)C(C)OC1=CC=CC2=C1\C=C/N(CC(=O)NC3=CC=C4OCCOC4=C3)C2=O` (centres undefined), the figures for the “area under concentration-response curve” value in the test on CU-ACC1, with NCI-H295R and in the test on CU-ACC2 were 505, 538 and 602, respectively.
The matching figures for `Cc1cc(O)c2c(c1)C(=O)c1cc(O)cc(O)c1C2=O`: 471, 498 and 521.
The corresponding values for `N=C(N)c1ccc2[nH]c(-c3cc(CC(=O)N[C@@H](CC(=O)O)C(=O)O)cc(-c4cc([S+](N)(=O)[O-])ccc4O)c3O)nc2c1` are 595, 562 and 620.
In the case of `NC1=NC=CC2=C1N=C[N]2[C@@H]3\C=C(CO)/[C@@H](O)[C@H]3O`, the figures for the “area under concentration-response curve” value in the test on CU-ACC1, with NCI-H295R and with CU-ACC2 were 448, 403 and 454, respectively.
The matching figures for `Oc1ccc(-c2nc(-c3ccncc3)c(-c3ccc(F)cc3)[nH]2)cc1`: 493, 475 and 574.
`CNC(=O)c1cccc(-c2ccc3c(N4CCOC[C@@H]4C)nc(N4CCOC[C@@H]4C)nc3n2)c1`: the “area under concentration-response curve” value in the test with CU-ACC1 came out at 452; with NCI-H295R, 453; with CU-ACC2, 545.
The matching figures for `C[C@H]1COC2=C3N1\C=C(C(O)=O)/C(=O)C3=CC(=C2N4CCN(C)CC4)F`: 522, 595 and 650.
The corresponding values for `CC(C)C1CCC(C(=O)N[C@H](Cc2ccccc2)C(=O)O)CC1` (some centres undefined) are 551, 599 and 652.
The matching figures for `CC(N[C@H]1C[C@@H]1c1ccccc1)c1ccc2c(c1)OCCO2` (some centres undefined): 432, 432 and 453.
With `COc1ccc(-c2ccc3cc(C(=O)O)ccc3c2)cc1C12CC3CC(CC(C3)C1)C2`, the “area under concentration-response curve” value amounted to 477 in the test with CU-ACC1, 479 in the test on NCI-H295R and 518 in the test with CU-ACC2.
Take `C[N+](C)([O-])CCNc1ccc(NCC[N+](C)(C)[O-])c2c1C(=O)c1c(O)ccc(O)c1C2=O`: the entries for the “area under concentration-response curve” value in the test with CU-ACC1, in the test with NCI-H295R and in the test with CU-ACC2 were 505, 496 and 540, respectively.
The corresponding values for `C=CC(=O)N[C@H]1CCOC[C@H]1Nc1ncc2cc(-c3c(Cl)c(OC)cc(OC)c3Cl)ccc2n1` are 458, 453 and 554.
The matching figures for `OC[C@H]1O[C@@H](O[C@@H]2[C@@H](CO)O[C@](O)(CO)[C@H]2O)[C@H](O)[C@@H](O)[C@H]1O`: 508, 532 and 569.
Turning to `Nc1nc(F)nc2c1ncn2[C@@H]1O[C@H](CO)[C@@H](O)[C@@H]1O`, the “area under concentration-response curve” value is 528 in the test with CU-ACC1, 510 with NCI-H295R and 577 with CU-ACC2.
Turning to `C/C(O)=C(\C#N)C(=O)Nc1ccc(C(F)(F)F)cc1`, the entries for the “area under concentration-response curve” value in the test on CU-ACC1, in the test on NCI-H295R and in the test on CU-ACC2 were 503, 524 and 607, respectively.
